What was measured:
[1] = tested on: MCF-7 cells; test: Breast Cancer Cell Viability Assay (MCF-7, CellTiter-Glo); type: cell-based; settings: 5 days' compound exposure; for IC50: Homo sapiens, MCF7, 120 h
Description: MCF-7 cells were adjusted to a concentration of 20,000 cells per mL in RPMI containing 10% FBS and 20 mM HEPES. 16 microliters of the cell suspension (320 cells) was added to each well of a 384 well plate, and the cells were incubated overnight to allow the cells to adhere. The following day an eleven point, serial semilog dilution of each compound was added to the cells in 16 μL at a final concentration ranging from 0.3-0.000003 μM. After 5 days' compound exposure, 16 μL of CellTiter-GLo (Promega, Madison Wis.) was added to the cells the relative luminescence units (RLUs) of each well was determined CellTiter-Glo added to 32 μL of medium without cells was used to obtain a background value. The Percent viability of each sample was determined as follows: (RLU sample-RLU background/RLU untreated cells-RLU background)×100=% viability.

[2] = biological target: T1, ER-α (Homo sapiens, UniProt P03372); test: Breast Cancer Cell ER-α In Cell Western Assay (SP1); type: cell-based; settings: MCF-7 cells, SP1 antibody, 4 or 24 hr post compound addition; for Emax: MCF7, read-out: ER-α In Cell Western Assay (SP1) Max Response; for DC50: read-out: ER-α In Cell Western Assay (SP1) IC50
T1 sequence (P03372 1-595): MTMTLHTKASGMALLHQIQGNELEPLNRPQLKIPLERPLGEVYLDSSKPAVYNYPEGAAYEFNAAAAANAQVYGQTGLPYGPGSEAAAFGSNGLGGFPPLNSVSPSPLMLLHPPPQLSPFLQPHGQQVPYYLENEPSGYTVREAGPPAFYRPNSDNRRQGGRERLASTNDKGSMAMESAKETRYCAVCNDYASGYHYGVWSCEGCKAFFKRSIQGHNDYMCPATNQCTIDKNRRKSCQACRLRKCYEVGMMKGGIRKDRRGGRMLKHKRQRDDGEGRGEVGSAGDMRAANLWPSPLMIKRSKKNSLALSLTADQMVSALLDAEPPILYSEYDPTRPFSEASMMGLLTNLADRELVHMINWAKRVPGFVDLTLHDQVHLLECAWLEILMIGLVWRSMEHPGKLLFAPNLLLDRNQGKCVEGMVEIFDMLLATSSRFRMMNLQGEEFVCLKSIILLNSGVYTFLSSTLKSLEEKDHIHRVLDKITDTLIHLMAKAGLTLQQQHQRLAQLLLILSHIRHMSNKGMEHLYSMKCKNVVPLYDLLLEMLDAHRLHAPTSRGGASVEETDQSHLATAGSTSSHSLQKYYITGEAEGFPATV
Description: MCF-7 cells were adjusted to a concentration of 200,000 cells per mL in RPMI containing 10% charcoal-stripped FBS and 20 mM HEPES. 16 microliters of the cell suspension (3200 cells) was added to each well of a poly-D-lysine 384 well plate, and the cells were incubated overnight to allow the cells to adhere. The following day an eleven point, serial semilog dilution of each compound was added to the cells in 16 μL at a final concentration ranging from 0.3-0.000003 μM. At 4 or 24 hr post compound addition, the cells were fixed (10% formalin in PBS) for 20 minutes. Cells were permeablized in PBS 0.1% Triton and blocked with LICOR blocking buffer (50 μL1/well, 90′). The wells were then incubated overnight at 4° C. with SP1 rabbit monoclonal Ab (Thermo Scientific) diluted 1:1000 in LICOR blocking buffer/0.1% Tween-20. Wells which were treated with blocking buffer with Tween but no antibody were used as a background control. Wells were washed with 0.1% Tween-20/PBS and then incubated in goat anti-rabbit IRDye™ 800CW (LICOR Inc.; 1:1000) and DRAQ5 DNA dye (1:2000 for 2 mM stock) diluted in LICOR blocking buffer containing 0.1% Tween-20 and 0.01% SDS for 60 minutes. Cells were washed (50 μl/well, 5′ each) in 0.1% Tween-20/PBS. Plates were scanned on a LICOR Odyssey infrared imaging system. Integrated intensities in the 800 nm channel and 700 nm channel were measured to determine levels of ER and DNA respectively. Percent ER levels were determined as follows: (Integrated intensity 800 nm sample/integrated intensity 700 nm sample)/(Integrated intensity 800 nm untreated cells/integrated intensity 700 nm untreated cells)×100=% ER levels.

SMILES	MCF7 Viability Assay Max Response [1]	IC50 [1] [nM]	Emax [2] [%]	DC50 [2] [nM]
CC/C(=C(/c1ccc(/C=C/C(=O)O)cc1)c1ccc2[nH]ncc2c1C)c1ccccc1 [Compound 36, (E)-3-(4-((E)-1-(4-Methyl-1H-indazol-5-yl)-2-phenylbut-1-en-1-yl)phenyl)acrylic acid]	++ (++ = a single % value ≧ 40%)	≤ 100	≥ 40	≤ 100
CC/C(=C(/c1ccc(/C=C/C(=O)O)cc1)c1cc(C)c2[nH]ncc2c1)c1ccccc1 [Compound 37, (E)-3-(4-((E)-1-(7-Methyl-1H-indazol-5-yl)-2-phenylbut-1-en-1-yl)phenyl)acrylic acid]	++ (++ = a single % value ≧ 40%)	≤ 100	≥ 40	≤ 100
CC/C(=C(/c1ccc(/C=C/C(=O)O)cc1)c1cc2cn[nH]c2cc1C)c1ccccc1 [Compound 38, (E)-3-(4-((E)-1-(6-Methyl-1H-indazol-5-yl)-2-phenylbut-1-en-1-yl)phenyl)acrylic acid]	++ (++ = a single % value ≧ 40%)	> 100	≥ 40	> 100
CC/C(=C(/c1ccc(/C=C/C(=O)O)cc1)c1ccc2[nH]nc(C)c2c1)c1ccccc1 [Compound 39, (E)-3-(4-((E)-1-(3-Methyl-1H-indazol-5-yl)-2-phenylbut-1-en-1-yl)phenyl)acrylic acid]	++ (++ = a single % value ≧ 40%)	> 100	≥ 40	> 100
CC/C(=C(/c1ccc(/C=C/C(=O)O)cc1)c1ccc2[nH]nc(Cl)c2c1)c1ccccc1 [Compound 40, (E)-3-(4-((E)-1-(3-Chloro-1H-indazol-5-yl)-2-phenylbut-1-en-1-yl)phenyl)acrylic acid]	++ (++ = a single % value ≧ 40%)	> 100	≥ 40	> 100
CC/C(=C(/c1ccc(/C=C/C(=O)O)cc1)c1ccc2[nH]ncc2c1)c1ccc(Cl)cc1C [Compound 41, (E)-3-(4-((E)-2-(4-Chloro-2-methylphenyl)-1-(1H-indazol-5-yl)but-1-en-1-yl)phenyl)acrylic acid]	++ (++ = a single % value ≧ 40%)	≤ 100	≥ 40	≤ 100
C/C(=C(/c1ccc(/C=C/C(=O)O)cc1)c1ccc2[nH]ncc2c1)c1ccccc1 [Compound 42, (E)-3-(4-((E)-1-(1H-Indazol-5-yl)-2-phenylprop-1-en-1-yl)phenyl)acrylic acid]	++ (++ = a single % value ≧ 40%)	≤ 100	≥ 40	≤ 100
CCC/C(=C(/c1ccc(/C=C/C(=O)O)cc1)c1ccc2[nH]ncc2c1)c1ccccc1 [Compound 43, (E)-3-(4-((E)-1-(1H-Indazol-5-yl)-2-phenylpent-1-en-1-yl)phenyl)acrylic acid]	++ (++ = a single % value ≧ 40%)	≤ 100	≥ 40	≤ 100
CC/C(=C(/c1ccc(/C=C/C(=O)O)cc1)c1ccc2[nH]ncc2c1)c1cccc(C#N)c1 [Compound 44, (E)-3-(4-((E)-2-(3-Cyanophenyl)-1-(1H-indazol-5-yl)but-1-en-1-yl)phenyl)acrylic acid]	++ (++ = a single % value ≧ 40%)	≤ 100	≥ 40	
CC/C(=C(/c1ccc(/C=C/C(=O)O)cc1)c1ccc2[nH]ncc2c1)c1ccc(C#N)cc1 [Compound 45, (E)-3-(4-((E)-2-(4-Cyanophenyl)-1-(1H-indazol-5-yl)but-1-en-1-yl)phenyl)acrylic acid]	++ (++ = a single % value ≧ 40%)	≤ 100	≥ 40	
O=C(O)/C=C/c1ccc(/C(=C(/CCO)c2ccccc2)c2ccc3[nH]ncc3c2)cc1 [Compound 46, (E)-3-(4-((E)-4-Hydroxy-1-(1H-indazol-5-yl)-2-phenylbut-1-en-1-yl)phenyl)acrylic acid]	+ (+ = a single % value < 40%)	> 100	≥ 40	> 100
COCC/C(=C(/c1ccc(/C=C/C(=O)O)cc1)c1ccc2[nH]ncc2c1)c1ccccc1 [Compound 47, (E)-3-(4-((E)-1-(1H-Indazol-5-yl)-4-methoxy-2-phenylbut-1-en-1-yl)phenyl)acrylic acid]	++ (++ = a single % value ≧ 40%)	≤ 100	≥ 40	≤ 100
COC/C(=C(/c1ccc(/C=C/C(=O)O)cc1)c1ccc2[nH]ncc2c1)c1ccccc1 [Compound 48, (E)-3-(4-((Z)-1-(1H-Indazol-5-yl)-3-methoxy-2-phenylprop-1-en-1-yl)phenyl)acrylic acid]	++ (++ = a single % value ≧ 40%)	≤ 100	≥ 40	≤ 100
CC/C(=C(/c1ccc(/C=C/C(=O)O)cc1)c1ccc2[nH]ncc2c1F)c1ccccc1 [Compound 49, (E)-3-(4-((E)-1-(4-Fluoro-1H-indazol-5-yl)-2-phenylbut-1-en-1-yl)phenyl)acrylic acid]	++ (++ = a single % value ≧ 40%)	≤ 100	≥ 40	≤ 100
CC/C(=C(/c1ccc(/C=C/C(=O)O)cc1)c1cc2cn[nH]c2cc1Cl)c1ccccc1 [Compound 50, (E)-3-(4-((E)-1-(6-Chloro-1H-indazol-5-yl)-2-phenylbut-1-en-1-yl)phenyl)acrylic acid]	++ (++ = a single % value ≧ 40%)	≤ 100	≥ 40	≤ 100
CC(C)C/C(=C(/c1ccc(/C=C/C(=O)O)cc1)c1ccc2[nH]ncc2c1)c1ccccc1 [Compound 51, (E)-3-(4-((E)-1-(1H-Indazol-5-yl)-4-methyl-2-phenylpent-1-en-1-yl)phenyl)acrylic acid]	++ (++ = a single % value ≧ 40%)	≤ 100	≥ 40	≤ 100
CC/C(=C(/c1ccc(/C=C/C(=O)O)cc1)c1ccc2[nH]ncc2c1Cl)c1ccccc1 [Compound 52, (E)-3-(4-((E)-1-(4-Chloro-1H-indazol-5-yl)-2-phenylbut-1-en-1-yl)phenyl)acrylic acid]	++ (++ = a single % value ≧ 40%)	≤ 100	≥ 40	≤ 100
O=C(O)/C=C/c1ccc(/C(=C(\c2ccccc2)C2CCCC2)c2ccc3[nH]ncc3c2)cc1 [Compound 53, (E)-3-(4-((E)-2-Cyclopentyl-1-(1H-indazol-5-yl)-2-phenylvinyl)phenyl)acrylic acid]	++ (++ = a single % value ≧ 40%)	≤ 100	≥ 40	≤ 100
O=C(O)/C=C/c1ccc(/C(=C(\c2ccccc2)C2CCCCC2)c2ccc3[nH]ncc3c2)cc1 [Compound 54, (E)-3-(4-((E)-2-Cyclohexyl-1-(1H-indazol-5-yl)-2-phenylvinyl)phenyl)acrylic acid]	++ (++ = a single % value ≧ 40%)	≤ 100	≥ 40	≤ 100

Source: US8455534B2, “Estrogen receptor modulators and uses thereof” (Aragon Pharmaceuticals, Inc., priority 2010, dated 2013)
